Assays:
Pyrenophora teres = experiment: In vivo test on Pyrenophora teres (barley net blotch); conditions: barley plants (Express variety), preventive spray, dose of 330 ppm, grading 12 days after contamination, in comparison with control plants
Description: In Vivo Test on Pyrenophora teres (Barley Net Blotch)
The active ingredient tested is prepared by potter homogenisation in a concentrated suspension type formulation at 100 g/l. This suspension is then diluted with water to obtain the desired active material concentration.
Barley plants (Express variety) in starter cups, sown on a 50/50 peat soil-pozzolana substrate and grown at 12° C., are treated at the 1-leaf stage (10 cm tall) by spraying with the aqueous suspension described above. Plants, used as controls, are treated with an aqueous solution not containing the active material.
After 24 hours, the plants are contaminated by spraying them with an aqueous suspension of Pyrenophora teres spores (12,000 spores per ml). The spores are collected from a 12-day-old culture The contaminated barley plants are incubated for 24 hours at about 20° C. and at 100% relative humidity, and then for 12 days at 80% relative humidity.
Grading is carried out 12 days after the contamination, in comparison with the control plants. Under these conditions, good (at least 50%) or total protection is observed at a dose of 330 ppm with the following compounds: A-1.

Alternaria brassicae = experiment: Effectiveness on Alternaria brassicae at 330 ppm; assay type: in vivo
Botrytis cinerea = experiment: Effectiveness on Botrytis cinerea at 330 ppm; assay type: in vivo
Peronospora parasitica = experiment: Efficacy against Peronospora parasitica at 330 ppm; assay type: in vivo

SMILES	protection (good (at least 50%) or total) (Pyrenophora teres)	effectiveness on Alternaria brassicae (Alternaria brassicae)	effectiveness on Botrytis cinerea (Botrytis cinerea)	efficacy against Peronospora parasitica (Peronospora parasitica)
Cn1cc(C(=O)NCCc2c(F)c(F)nc(F)c2F)c(C(F)F)n1 [Compound A-1, 3-(difluoromethyl)-1-methyl-N-[2-(2,3,5,6-tetrafluoro-4-pyridinyl)ethyl]-1H-pyrazole-4-carboxamide]	at least 50%	–	–	–
O=C(Cc1cccs1)NCc1ncc(C(F)(F)F)cc1Cl [compound 101, N-{[3-chloro-5-(trifluoromethyl)-2-pyridinyl]methyl}-5-thienylacetamide]	–	poor efficacy	no efficacy	no efficacy
CCNC(=O)C(Cc1ncc(C(F)(F)F)cc1Cl)NC(=O)c1ccccc1 (stereo not shown) [compound 304, N-{1-ethylcarbamoyl-2-[3-chloro-5-(trifluoromethyl)-2-pyridinyl]ethyl}-benzamide]	–	–	zero effectiveness	–
CCNC(=O)C(Cc1ncc(C(F)(F)F)cc1Cl)NC(=O)c1ccc(Cl)cc1 (stereo not shown) [compound 306, N-{1-ethylcarbamoyl-2-[3-chloro-5-(trifluoromethyl)-2-pyridinyl]ethyl}-4-chlorobenzamide]	–	–	zero effectiveness	–
CCNC(=O)C(Cc1ncc(C(F)(F)F)cc1Cl)NC(=O)c1cccc([N+](=O)[O-])c1 (stereo not shown) [compound 307, N-{1-ethylcarbamoyl-2-[3-chloro-5-(trifluoromethyl)-2-pyridinyl]ethyl}-3-nitrobenzamide]	–	poor effectiveness	zero effectiveness	–
CCNC(=O)C(Cc1ncc(C(F)(F)F)cc1Cl)NC(=O)c1ccccc1Br (stereo not shown) [compound 310, N-{1-ethylcarbamoyl-2-[3-chloro-5-(trifluoromethyl)-2-pyridinyl]ethyl}-2-bromobenzamide]	–	–	zero effectiveness	–
CNC(=O)C(Cc1ncc(C(F)(F)F)cc1Cl)NC(=O)c1ccccc1 (stereo not shown) [compound 314, N-{1-methylcarbamoyl-2-[3-chloro-5-(trifluoromethyl)-2-pyridinyl]ethyl}-benzamide]	–	–	zero effectiveness	–
CNC(=O)C(Cc1ncc(C(F)(F)F)cc1Cl)NC(=O)c1ccc(OC)cc1 (stereo not shown) [compound 315, N-{1-methylcarbamoyl-2-[3-chloro-5-(trifluoromethyl)-2-pyridinyl]ethyl}-4-methoxybenzamide]	–	–	zero effectiveness	–
CNC(=O)C(Cc1ncc(C(F)(F)F)cc1Cl)NC(=O)c1ccc(-c2ccccc2)cc1 (stereo not shown) [compound 316, N-{1-methylcarbamoyl-2-[3-chloro-5-(trifluoromethyl)-2-pyridinyl]ethyl}-4-phenylbenzamide]	–	poor effectiveness	zero effectiveness	–
